Here are results for 25 molecules from US6683078B2, “Use of sulfonyl aryl or heteroaryl hydroxamic acids and derivatives thereof as aggrecanase inhibitors” (priority 2001, dated 2004).

Data set [1] addresses T1, Recombinant human MMP-1 (Homo sapiens, UniProt P03956).
T1 construct: made in house; host or cells: transfected HT-1080 cells
T1 sequence (P03956 100-469): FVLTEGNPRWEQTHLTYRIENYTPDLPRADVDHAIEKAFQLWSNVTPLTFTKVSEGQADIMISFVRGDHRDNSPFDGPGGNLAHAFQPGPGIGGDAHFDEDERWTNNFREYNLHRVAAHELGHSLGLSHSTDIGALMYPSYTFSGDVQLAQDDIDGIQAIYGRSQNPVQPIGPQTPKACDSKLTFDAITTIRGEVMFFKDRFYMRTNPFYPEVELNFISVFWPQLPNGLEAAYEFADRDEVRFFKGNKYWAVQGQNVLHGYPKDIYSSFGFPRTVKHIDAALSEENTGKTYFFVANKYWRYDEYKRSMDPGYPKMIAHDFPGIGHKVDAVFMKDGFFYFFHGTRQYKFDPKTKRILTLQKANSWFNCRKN
Description: In vitro MMP inhibition, fluorogenic peptide substrate. It counts as biochemical.
Description: These enzymes were prepared in the Assignee's laboratories following usual laboratory procedures.
The MMP-1 was activated using 4-aminophenylmercuric acetate (APMA), and then purified over a hydroxamic acid column.
(§1) The enzyme substrate was a methoxycoumarin-containing polypeptide having the following sequence:
MCA-ProLeuGlyLeuDpaAlaArgNH2
(§2) Here, “MCA” is methoxycoumarin and “Dpa” is 3-(2,4-dinitrophenyl)-L-2,3-diaminopropionyl alanine.
(§3) These solutions were then compared to a control (which contained an equal amount of DMSO/buffer solution, but no hydroxamate compound) using Microfluor™ White Plates (Dynatech, Chantilly, Va.). More specifically, the MMPs were activated with APMA or trypsin. Then the various hydroxamate/DMSO/buffer solutions and control solutions were introduced into separate plates at room temperature with the activated MMP. After 10 minutes, 4 um of the MMP substrate was added to each plate. The plates were then incubated for 5 minutes at room temperature. […] Inhibition was measured as a reduction in fluorescent intensity as a function of inhibitor concentration using a Perkin Elmer (Norwalk, Conn.) L550 plate reader. The IC50's were then calculated from these measurements.

In data set [2] the target is T2, Recombinant human MMP-13 (Homo sapiens, UniProt P45452).
T2 construct: made in house; host or cells: baculovirus / insect cells
Described as above. It counts as biochemical.
Description: The expressed proenzyme was first purified over a heparin agarose column, and then over a chelating zinc chloride column. The proenzyme was then activated by APMA for use in the assay.
as §1
MCA-ProLeuGlyLeuDpaAlaArgNH2
as §2, §3

For data set [3], the target named is T3, Recombinant human MMP-2 (Homo sapiens, UniProt P08253).
T3 construct: made in house
T3 sequence (P08253 110-660): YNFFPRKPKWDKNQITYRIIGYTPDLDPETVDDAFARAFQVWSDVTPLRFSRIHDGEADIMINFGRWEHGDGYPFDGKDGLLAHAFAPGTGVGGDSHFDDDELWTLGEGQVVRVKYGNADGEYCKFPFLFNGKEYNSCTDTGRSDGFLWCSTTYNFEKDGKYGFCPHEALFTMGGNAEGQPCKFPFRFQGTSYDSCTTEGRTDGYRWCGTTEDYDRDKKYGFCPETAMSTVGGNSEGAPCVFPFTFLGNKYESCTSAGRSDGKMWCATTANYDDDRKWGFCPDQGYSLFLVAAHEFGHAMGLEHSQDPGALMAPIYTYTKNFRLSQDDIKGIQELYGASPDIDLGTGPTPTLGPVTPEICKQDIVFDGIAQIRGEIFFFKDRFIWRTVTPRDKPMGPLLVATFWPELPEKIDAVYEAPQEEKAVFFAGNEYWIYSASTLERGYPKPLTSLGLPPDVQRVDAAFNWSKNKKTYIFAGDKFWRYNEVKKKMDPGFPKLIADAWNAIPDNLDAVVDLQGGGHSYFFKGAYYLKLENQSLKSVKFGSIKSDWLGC
The description is as above. The data set is classed as biochemical.
Description: as §1
MCA-ProLeuGlyLeuDpaAlaArgNH2
as §2, §3

Data set [4] deals with T4, Recombinant human MMP-14 (Homo sapiens, UniProt P50281).
T4 construct: made in house
Described as above. It counts as biochemical. The following applies: Table B.
Description: (§4) These enzymes were prepared in the Assignee's laboratories following usual laboratory procedures. Specifics for preparing and using these enzymes can be found in the scientific literature describing these enzymes.
as §1
MCA-ProLeuGlyLeuDpaAlaArgNH2
as §2, §3

The target of data set [5] is T5, Recombinant human MMP-9 (Homo sapiens, UniProt P14780).
T5 construct: made in house
T5 sequence (P14780 107-707 limits assumed): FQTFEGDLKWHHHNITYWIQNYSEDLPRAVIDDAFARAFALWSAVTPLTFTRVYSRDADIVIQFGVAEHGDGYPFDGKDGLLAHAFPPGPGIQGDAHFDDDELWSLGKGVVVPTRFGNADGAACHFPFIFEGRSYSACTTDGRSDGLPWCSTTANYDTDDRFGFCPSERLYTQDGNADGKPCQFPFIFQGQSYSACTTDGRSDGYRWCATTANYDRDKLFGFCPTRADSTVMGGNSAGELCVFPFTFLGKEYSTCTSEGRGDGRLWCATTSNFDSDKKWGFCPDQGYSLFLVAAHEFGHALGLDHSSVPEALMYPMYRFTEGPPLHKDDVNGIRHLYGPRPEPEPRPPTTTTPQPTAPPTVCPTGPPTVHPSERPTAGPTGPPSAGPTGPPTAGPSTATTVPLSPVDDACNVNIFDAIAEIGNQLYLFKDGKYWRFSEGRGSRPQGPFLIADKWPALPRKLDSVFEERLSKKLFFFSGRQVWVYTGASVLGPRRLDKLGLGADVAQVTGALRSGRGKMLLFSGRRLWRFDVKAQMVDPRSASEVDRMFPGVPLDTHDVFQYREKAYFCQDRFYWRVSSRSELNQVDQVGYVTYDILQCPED
Described as above. It counts as biochemical. The following applies: Table B.
Description: as §1
MCA-ProLeuGlyLeuDpaAlaArgNH2
as §2
More specifically, the MMPs were activated with APMA or trypsin. […] After 10 minutes, 4 um of the MMP substrate was added to each plate. The plates were then incubated for 5 minutes at room temperature. […] Inhibition was measured as a reduction in fluorescent intensity as a function of inhibitor concentration using a Perkin Elmer (Norwalk, Conn.) L550 plate reader. The IC50's were then calculated from these measurements.

Data set [6] has as its target T6, Recombinant human MMP-8 (Homo sapiens, UniProt P22894).
T6 construct: made in house
The data set is described as above. Particulars: Table B. The data set is classed as biochemical.
Description: as §4, §1
MCA-ProLeuGlyLeuDpaAlaArgNH2
as §2, §3

In data set [7] the target is T7, Recombinant human MMP-3 (Homo sapiens, UniProt P08254).
T7 construct: made in house
T7 sequence (P08254 100-477): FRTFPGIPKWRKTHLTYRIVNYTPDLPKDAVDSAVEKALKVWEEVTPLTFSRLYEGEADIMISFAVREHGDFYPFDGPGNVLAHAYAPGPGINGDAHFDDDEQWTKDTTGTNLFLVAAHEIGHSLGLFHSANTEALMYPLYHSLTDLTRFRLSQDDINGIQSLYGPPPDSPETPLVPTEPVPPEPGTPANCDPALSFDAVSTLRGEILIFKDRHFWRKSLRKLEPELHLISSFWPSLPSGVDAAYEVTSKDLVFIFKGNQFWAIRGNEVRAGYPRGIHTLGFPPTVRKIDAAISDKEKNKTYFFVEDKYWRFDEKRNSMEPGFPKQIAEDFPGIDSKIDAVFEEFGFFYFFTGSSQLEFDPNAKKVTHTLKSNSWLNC
Described as above. It counts as biochemical. The following applies: Table B.
Description: as §4, §1
MCA-ProLeuGlyLeuDpaAlaArgNH2
as §2, §3

The subject of data set [8] is solid tumor cancers (colorectal, pancreatic, ovarian, and prostate). Particulars: cited from earlier work.

Counter-ions that a name gives are not always drawn.

As usually defined, the IC50 is the point on the concentration scale where inhibition reaches its midpoint.

T6 sequence (P22894 101-467): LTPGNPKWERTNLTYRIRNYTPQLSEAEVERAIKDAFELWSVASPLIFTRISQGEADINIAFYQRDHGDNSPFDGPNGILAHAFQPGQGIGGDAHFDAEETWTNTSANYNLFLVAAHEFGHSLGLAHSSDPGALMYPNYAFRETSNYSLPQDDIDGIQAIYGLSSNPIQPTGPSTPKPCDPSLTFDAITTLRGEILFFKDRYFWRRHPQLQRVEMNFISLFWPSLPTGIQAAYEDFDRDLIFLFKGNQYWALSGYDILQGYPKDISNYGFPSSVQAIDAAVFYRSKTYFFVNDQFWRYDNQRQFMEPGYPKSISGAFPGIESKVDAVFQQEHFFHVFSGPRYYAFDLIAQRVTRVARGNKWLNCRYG

`O=C(NO)c1ccccc1NS(=O)(=O)c1ccc(Oc2ccccc2)cc1` [Example 5, N-hydroxy-2-[[(4-phenoxyphenyl)-sulfonyl]amino]benzamide]: the values for the IC50 in data set [1] (Inhibition Table A) and in data set [2] (Inhibition Table A) were > 10 µM and > 10000 nM, respectively.

Regarding `O=C(NO)c1ccccc1S(=O)(=O)Cc1ccc(-c2ccccc2)cc1` [Example 4, 2-[([1,11-biphenyl]-4-ylmethyl)-sulfonyl]-N-hydroxybenzamide], the half-inhibitory concentration (IC50) in data set [1] (Inhibition Table A) is > 10 µM; in data set [3] (Inhibition Table A), > 10000 nM; in data set [2] (Inhibition Table A) it was > 10000 nM.

For the molecule `O=C(NO)c1ccccc1S(=O)(=O)N1CCC(Oc2ccc(OC(F)(F)F)cc2)CC1` [Example 12, N-hydroxy-2-[[4-[4-(trifluoromethoxy)phenoxy]-1-piperidinyl]sulfonyl]benzamide], the concentration for half-maximal inhibition (IC50) in data set [1] (Inhibition Table A) is > 10 µM; in data set [2] (Inhibition Table A) it was 33 nM.

Regarding `CC(O)(C(=O)NO)c1ccccc1S(=O)(=O)N1CCC(c2ccccc2)CC1` (centres unmarked) [Example 10, N,2-dihydroxy-2-methyl-2-[(4-phenyl-1-piperidinyl)sulfonyl]benzeneacetamide], the IC50 in data set [1] (Inhibition Table A) is > 10 µM.

Turning to `O=C(NO)c1c(F)cccc1S(=O)(=O)N1CCC(Oc2ccc(C(F)(F)F)cc2)CC1` [Example 19], in data set [1] (Inhibition Table A), the 50% inhibitory concentration (IC50) was > 10 µM.

Consider `COCCOc1cccc(S(=O)(=O)N2CCC(Oc3ccc(C(F)(F)F)cc3)CC2)c1C(=O)NO` [Example 23, N-hydroxy-2-(2-methoxyethoxy)-6-[[4-[4-(trifluoromethyl)phenoxy]-1-piperidinyl]sulfonyl]benzamide], for which the concentration for half-maximal inhibition (IC50) in data set [1] (Table B) was > 10 µM.

On to `O=C(NO)c1ccccc1S(=O)(=O)N1CCC(Oc2ccccn2)CC1` [Example 44, N-hydroxyl-2-[[4-(2-pyridinyloxy)-1-piperidinyl]sulfonyl]benzamide, monohydrochloride], for which the IC50 in data set [1] (Table B) is > 10 µM.

In the case of `CCCCOc1ccc(N2CCN(S(=O)(=O)c3ccc(OC)c(OC)c3C(=O)NO)CC2)cc1F` [Example 25, 6-[[4-(butoxy-3-fluorophenyl)-1-piperazinyl]sulfonyl]-N-hydroxy-2,3-dimethoxybenzamide], the half-maximal inhibitory concentration (IC50) in data set [1] (Table B) was > 10 µM; in data set [3] (Table B), 0.4 nM; in data set [4], > 10000 nM; in data set [2] (Table B) it was 8.5 nM; in data set [5] it was 22.1 nM; in data set [6] it was 252 nM. The IC50 in data set [7] was 294 nM.

Regarding `O=C(NO)c1ccccc1S(=O)(=O)N1CCC(Oc2ccc(C(F)(F)F)cc2)CC1` [Example 13, N-hydroxy-2-[[4-[4-(trifluoromethyl)phenoxy]-1-piperidinyl]sulfonyl]benzamide], the half-maximal inhibitory concentration (IC50) in data set [1] (Inhibition Table A) is > 10 µM.

On to `COc1ccc(S(=O)(=O)N2CCC(Oc3ccc(C(F)(F)F)cc3)CC2)c(C(=O)NO)c1OC` [Example 16, N-hydroxy-2,3-dimethoxy-6-[[4-[4-(trifluoromethyl)phenoxy]-1-piperidinyl)sulfonyl]benzamide], for which the IC50 in data set [1] (Inhibition Table A) is > 10 µM.

For the molecule `O=C(NO)c1ccccc1S(=O)(=O)N1CCC(c2ccccc2)CC1` [Example 9, N-Hydroxy-2-[[4-(phenyl)-1-piperidnyl]sulfonyl]benzamide], the IC50 in data set [1] (Inhibition Table A) was > 10 µM.

For the molecule `O=C(NO)c1ccccc1CS(=O)(=O)c1ccc(Oc2ccccc2)cc1` [Example 1, N-hydroxy-2-[[(4-phenoxyphenyl)-sulfonyl]methyl]benzamide], in data set [1] (Inhibition Table A), the 50% inhibitory concentration (IC50) was > 10 µM.

In the case of `COc1ccc(-c2ccc(OC3CCN(S(=O)(=O)c4ccc(OC)c(OC)c4C(=O)NO)CC3)cc2)cc1OC` [Example 27], the 50% inhibitory concentration (IC50) was > 10 µM in data set [1] (Table B); 3.3 nM in data set [3] (Table B); 1700 nM in data set [4]; 2.6 nM in data set [2] (Table B); 370 nM in data set [5]; 115 nM in data set [6]. In addition, the IC50 in data set [7] worked out at 100 nM.

Take `COc1ccc(S(=O)(=O)N2CCN(c3ccc(OC(F)(F)F)cc3)CC2)c(C(=O)NO)c1OC` [Example 26]: the 50% inhibitory concentration (IC50) was > 10 µM in data set [1] (Table B); 0.4 nM in data set [3] (Table B); 416 nM in data set [4]; 17.9 nM in data set [2] (Table B); 40.1 nM in data set [5]; 7.1 nM in data set [6]. Also, the half-inhibitory concentration (IC50) in data set [7] stood at 1460 nM.

Turning to `O=C(NO)c1ccccc1S(=O)(=O)N1CCC(Oc2ccc(C(F)(F)F)cc2)C1` (centres unmarked) [Example 17, N-hydroxy-2-[[3-[4-(trifluoromethyl)phenoxy]-1-pyrrolidinyl]sulfonyl]benzamide], the IC50 stood at 1800 nM in data set [3] (Inhibition Table A) and 2000 nM in data set [2] (Inhibition Table A).

For the molecule `O=C(NO)c1ccccc1S(=O)(=O)N1CCC(OCc2ccc(C(F)(F)F)cc2)CC1` [Example 14, N-hydroxy-2-[[4-[[4-(trifluoromethyl)phenyl]methoxy]-1-piperidinyl]sulfonyl]benzamide], the values for the half-maximal inhibitory concentration (IC50) in data set [1] (Inhibition Table A), in data set [3] (Inhibition Table A) and in data set [2] (Inhibition Table A) were > 10 µM, 35 nM and 900 nM, respectively.

Consider `O=C(NO)c1ccccc1S(=O)(=O)Nc1ccc(Oc2ccccc2)cc1` [Example 15, N-hydroxy-2-[[(4-phenoxyphenyl)-amino]sulfonyl]benzamide], for which the 50% inhibitory concentration (IC50) in data set [1] (Inhibition Table A) is > 10 µM; in data set [3] (Inhibition Table A), 3500 nM; in data set [2] (Inhibition Table A) it was 9000 nM.

For the molecule `COc1ccccc1-c1ccc(OC2CCN(S(=O)(=O)c3ccc(OC)c(OC)c3C(=O)NO)CC2)cc1` [Example 22], in data set [1] (Table B), the 50% inhibitory concentration (IC50) is > 10 µM.

As to `COc1ccc(NS(=O)(=O)c2ccccc2C(=O)NO)cc1` [Example 7, N-hydroxy-2-[(4-methoxyanilino)sulfonyl]benzamide], the values for the 50% inhibitory concentration (IC50) in data set [1] (Inhibition Table A) and in data set [2] (Inhibition Table A) were > 10 µM and > 10000 nM, respectively.

As for `O=C(NO)c1ccccc1S(=O)(=O)N1CCN(C(=O)c2ccccc2)CC1` [Example 53, 2-[(4-benzoyl-1-piperazinyl)sulfonyl]-N-hydroxybenzamide], the IC50 in data set [3] (Table B) stood at 1000 nM; in data set [2] (Table B), 6700 nM.

For the molecule `COc1ccc(S(=O)(=O)N2CCC(Sc3ccccc3)CC2)c(C(=O)NO)c1OC` [Example 24], the half-maximal inhibitory concentration (IC50) in data set [6] is 107 nM.

Turning to `O=C(NO)c1ccccc1S(=O)(=O)NCc1ccccc1` [Example 8, N-hydroxy-2-[(benzylamino)sulfonyl]benzamide], the 50% inhibitory concentration (IC50) in data set [1] (Inhibition Table A) was > 10 µM; in data set [2] (Inhibition Table A), > 10000 nM.

Take `O=C(NO)c1ccccc1S(=O)(=O)N1CCC(Cc2ccccc2)CC1` [Example 3, N-hydroxy-2-[[4-(phenylmethyl)-1-piperidinyl]sulfonyl]benzamide]: the figures for the IC50 in data set [1] (Inhibition Table A), in data set [3] (Inhibition Table A) and in data set [2] (Inhibition Table A) were > 10 µM, 148 nM and 1000 nM, respectively.

For the molecule `COc1ccc(C(=O)NC2CCN(S(=O)(=O)c3ccccc3C(=O)NO)C2)cc1` (centres unmarked) [Example 11, N-hydroxy-2-[[3-[(4-methoxybenzoyl)amino]-1-pyrrolidinyl]sulfonyl]benzamide], the figures for the IC50 in data set [3] (Inhibition Table A) and in data set [2] (Inhibition Table A) were 2300 nM and 2200 nM, respectively.

Turning to `CNC(=O)[C@@H](NC(=O)[C@H](CC(C)C)[C@H](O)C(=O)NO)C(C)(C)C` [Marimastat], the “most common drug-related toxicity” value in data set [8] (clinical trials) is “musculoskeletal pain and stiffness”. The “effect on cancer-specific antigens used as surrogate markers for biological activity” value in data set [8] (meta analysis of Phase I/II data, patients with advanced, treatment-refractory solid tumors) is given as “dose-related reduction in the rise of cancer-specific antigens”.
